Results on 1 compound are retold here after publication PMC5326799, “Discovery of Compounds that Positively Modulate the High Affinity Choline Transporter” (Frontiers in Molecular Neuroscience, 2017).

One series has as its target T1, CHT (Homo sapiens, UniProt Q9GZV3).
T1 sequence (Q9GZV3 1-580): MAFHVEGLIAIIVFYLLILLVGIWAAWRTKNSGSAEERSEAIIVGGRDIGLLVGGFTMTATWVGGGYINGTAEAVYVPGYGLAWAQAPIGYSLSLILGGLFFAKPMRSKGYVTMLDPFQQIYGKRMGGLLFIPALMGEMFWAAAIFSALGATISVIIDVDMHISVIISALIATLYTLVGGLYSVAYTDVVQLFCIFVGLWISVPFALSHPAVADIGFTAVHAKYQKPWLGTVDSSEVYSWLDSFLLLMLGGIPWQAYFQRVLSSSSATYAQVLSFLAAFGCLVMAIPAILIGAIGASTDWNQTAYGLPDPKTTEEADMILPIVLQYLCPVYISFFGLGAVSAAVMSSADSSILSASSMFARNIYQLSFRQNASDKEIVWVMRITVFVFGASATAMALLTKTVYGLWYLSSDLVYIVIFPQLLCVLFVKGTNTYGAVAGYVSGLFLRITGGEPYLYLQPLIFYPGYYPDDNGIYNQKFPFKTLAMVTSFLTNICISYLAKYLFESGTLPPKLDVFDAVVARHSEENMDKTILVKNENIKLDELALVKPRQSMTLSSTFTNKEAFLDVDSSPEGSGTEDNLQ
Put plainly: cell-based.

A further series has as its system SH-SY5Y cell line. Nature of the series: [3H]Choline uptake in untransformed SH-SY5Y cell line. The format is cell-based. The note with it: 1 μM HC-3, 10 μM STS. The source says:
(§1) Supplementary file Image1.JPEG: Supplementary Figure 1 [^3H] […] Click here for additional data file.

Series [1] deals with T2, high affinity choline transporter (CHT) (Homo sapiens, UniProt Q9GZV3).
T2 construct: expressed in transfected cells; host or cells: HEK-293, lentiviral transduction, single-cell clone CHT-WT4
T2 sequence (Q9GZV3 1-580): T1 sequence (Q9GZV3 1-580)
Put plainly: Radiometric [3H]Choline uptake assay (scintillation proximity) in HEK cells expressing CHT. The format is cell-based. To be noted: 3H-choline uptake IC50 or EC50(M), PAM compounds; 10-point dose response; HEK293 CHT-WT4; n.d. = not detected. The procedure:
Uptake of [^3H]Choline (American Radiochemicals; ART 0197; 1,000 Ci/vial; Specific Activity 60–90 Ci/mmol) was measured in HEK cells expressing the high affinity choline transporter (CHT), clone WT4. Cells were plated at 50,000 cells /well in 200 μL culture media on a PDL coated Cytostar-T 96 well plate (Perkin Elmer) 24 h prior to assay. On the day of assay, following two washes and a 30 min pre-incubation at 37°C in 50 μL Na(−) free buffer (0.54 mM KCl, 1.3 mM CaCl2, 0.53 mM MgCl2, 0.4 mM MgSO4, 0.37 mM KH2PO4, 240 mM Sucrose, 4.4 mM Tris-phosphate, 5.5 mM Glycine, 5.6 mM D-Glucose; pH 6.5 with KOH), 25 μL 4X control or test compounds in Na(−) buffer were added to the cells. […] Final DMSO concentration was 0.25%. Following a 30 min incubation at 37°C, 25 μL [^3H]Choline diluted to 320 nM (80 nM final concentration) was added in Na(+) buffer (0.54 mM KCl, 1.3 mM CaCl2, 0.53 mM MgCl2, 0.4 mM MgSO4, 0.37 mM KH2PO4, 138 mM NaCl, 0.28 mM Na2HPO4, 5.5 mM Glycine, 5.6 mM D-Glucose; pH 6.5 with KOH). Plates were sealed with TopSeals (Perkin Elmer) and incubated in darkness for 3 h at room temperature before reading using a Wallac Microbeta, 1 min/well.
(§2) A preponderance of literature precedent for measuring high affinity choline uptake (HACU) utilizes a radiometric assay to measure [^3H]Choline transport in preparations. […] A number of parameters were assessed in assay development including cell seeding density, time of assay post-seeding, plate coating, buffer composition, read time and choline concentration.

Another series relates to SH-SY5Y cells. Put plainly: Radiometric CHT transport in SH-SY5Y cell backgrounds. The note with it: potentiation could not be demonstrated. It counts as cell-based. Here is the method: as §2
The subject of the next series is SK-N-FI cell line. Nature of the series: [3H]Choline uptake in untransformed SK-N-FI cell line. The format is cell-based. To be noted: 1 μM HC-3, 10 μM STS.
Source text: as §1

`CN[C@@H]1C[C@H]2O[C@@](C)([C@@H]1OC)n1c3ccccc3c3c4c(c5c6ccccc6n2c5c31)C(=O)NC4` [STS, staurosporine]: the values for the EC50 (on CHT; in series [1]) were 0.507 µM and 1.7e-06 M, respectively. Besides, the “Effect on [3H]Choline uptake” value in the series on SH-SY5Y cell line and with SK-N-FI cell line was “No effect” throughout. Also, the “Potentiation of CHT transport in SH-SY5Y cell backgrounds” value in the series on SH-SY5Y cells was “toxicity”.
